Source: publication PMC3410894, “Structural and Biochemical Basis for Development of Influenza Virus Inhibitors Targeting the PA Endonuclease” (PLoS Pathogens, 2012)
Where two headings read alike, the source gives them in different places.

How the values were obtained:
influenza virus [1] = settings: cited from earlier work
PAN endonuclease = PAN endonuclease (Influenza A virus, UniProt Q5EP34); type: biochemical, H5N1 influenza virus A/Vietnam/1203/2004
[2] = system: H1N1 influenza A virus (A/PuertoRico/8/34); experiment: microbe, parasite or virus in culture; type: cell-based; settings: H1N1, MDCK, 72 h, read-out: Antiviral Activity IC50
in vitro = settings: dog
influenza A polymerase [3] = settings: read-out: Reported IC50; cited from earlier work
influenza A polymerase [4] = type: biochemical, influenza A virus
PAN = PAN (Influenza A virus, UniProt Q5EP34); type: binding, H5N1 influenza virus A/Vietnam/1203/2004
[5] = system: H1N1 influenza A virus (A/PuertoRico/8/34); parameters: method as in PMID 22211528; settings: plaque formation, MDCK cells, 72 h, measured previously; read-out: Antiviral Activity IC50; cited from earlier work
MDCK cells = settings: cited from earlier work
influenza virus [6] = settings: mouse, in vivo; cited from earlier work

O=C(O)/C(O)=C/C(=O)C1(Cc2ccc(Cl)cc2)CCN(CC2CCCCC2)CC1 [Compound 22]
Inhibition of viral replication in cell culture (qualitative) (influenza virus [1]): dose-dependent inhibition of viral replication in cell culture

CC(=O)Nc1cccc(-c2nc(C(=O)O)c(O)c(=O)[nH]2)c1 [Compound 5, 2-(3-acetamidophenyl)-5-hydroxy-6-oxo-1,6-dihydropyrimidine-4-carboxylic acid]
Inhibition of PAN endonuclease activity (PAN endonuclease): inhibit PAN activity
IC50 [2]: > 50 µM
CC50 at 72 h (in vitro): 48.7 ± 1.2 µM

CC(C)/C=C1\N=C(CC(C)C)C(=O)N(O)C1=O [Compound 7, Flutimide]
IC50 (influenza A polymerase [3]): 5.5 µM

CC(C)CC1=N/C(=C\c2ccc(F)cc2)C(=O)N(O)C1=O [Compound 8]
Fold increase in potency compared with Flutimide (influenza A polymerase [4]): 6 fold
IC50 (influenza A polymerase [3]): 0.9 µM

O=C(CC(O)C(=O)O)c1ccccc1 (centres unmarked) [Compound 16]
IC50 (influenza A polymerase [3]): > 500 µM

2,4-dioxo-4-phenylbutanoic acid [Compound 2]
Inhibition of PAN endonuclease activity (PAN endonuclease): inhibited PAN enzymatic activity in a dose-dependent manner
ITC binding stoichiometry N (compound per PAN) (PAN): 1.86

COC(=O)c1nc(-c2cnccn2)[nH]c(=O)c1O [Compound 25]
IC50 [2]: > 50 µM
CC50 at 72 h (in vitro): > 60 µM

C[C@@H](NC(=O)c1nc(-c2cnccn2)[nH]c(=O)c1O)c1ccccc1 [Compound 26]
IC50 [5]: 12.68 ± 0.08 µM
CC50 (MDCK cells): > 60 µM

O=C1Cc2ccccc2C(=O)N1O [Compound 1]
Inhibition of PAN endonuclease activity (PAN endonuclease): inhibited PAN enzymatic activity in a dose-dependent manner

O=C(O)/C(O)=C/C(=O)C1(Cc2ccc(Cl)cc2)CCCN(Cc2ccccc2)C1 [Compound 20, L-735,882]
IC50 (influenza A polymerase [3]): 1.1 µM
Inhibition of viral replication in cell culture (qualitative) (influenza virus [1]): dose-dependent inhibition of viral replication in cell culture

O=C(O)c1cccc(O)c1O [Compound 6, dihydroxybenzoic acid]
Inhibition of PAN endonuclease activity (PAN endonuclease): little ability to inhibit PAN endonuclease activity

O=C(O)c1nc(-c2cnccn2)nc(O)c1O [Compound 24]
IC50 [5]: > 50 µM
CC50 (MDCK cells): > 60 µM

Cn1cnc(-c2nc(C(=O)O)c(O)c(=O)[nH]2)c1 [Compound 4, 5-hydroxy-2-(1-methyl-1H-imidazol-4-yl)-6-oxo-1,6-dihydropyrimidine-4-carboxylic acid]
Inhibition of PAN endonuclease activity (PAN endonuclease): inhibit PAN activity
IC50 [2]: > 50 µM
CC50 at 72 h (in vitro): > 60 µM

O=C1Cc2ccccc2CC(=O)N1O [Compound 11]
IC50 (influenza A polymerase [3]): > 1000 µM

O=C(O)/C(O)=C/S(=O)(=O)c1ccccc1 [Compound 19]
IC50 (influenza A polymerase [3]): > 500 µM

O=C(O)/C(O)=C/C(=O)C1(Cc2ccc(Cl)cc2)CCCN(S(=O)(=O)Cc2ccccc2)C1 (centres unmarked) [Compound 21]
IC50 (influenza A polymerase [3]): 0.19 µM
Inhibition of viral replication in cell culture (qualitative) (influenza virus [1]): dose-dependent inhibition of viral replication in cell culture

CC(=O)C=C(O)C(=O)O [Compound 14]
Fold reduction in potency compared with 2 (influenza A polymerase [4]): 14 fold
IC50 (influenza A polymerase [3]): 307 µM

COC(=O)c1nc(-c2cn(C)cn2)[nH]c(=O)c1O [Compound 23]
IC50 [2]: > 50 µM
CC50 at 72 h (in vitro): 53.2 ± 0.9 µM

CC(C)C(=O)C=C(O)C(=O)O [Compound 13]
Fold reduction in potency compared with 2 (influenza A polymerase [4]): 2.6 fold
IC50 (influenza A polymerase [3]): 56.7 µM

O=C(O)/C(O)=C/C(=O)C1(Cc2ccc(Cl)cc2)CCN(Cc2ccccc2)CC1 [Compound 3, L-742,001]
Inhibition of PAN endonuclease activity (PAN endonuclease): inhibited PAN enzymatic activity in a dose-dependent manner
IC50 (influenza virus [1]; read-out: IC50, inhibition of viral replication in cell culture): 0.35 µM
Inhibition of viral replication in mice (qualitative) (influenza virus [6]): dose-dependent inhibition of viral replication

NC(CC(=O)c1ccccc1)C(=O)O (centres unmarked) [Compound 17]
IC50 (influenza A polymerase [3]): > 500 µM

CC(C)CC1=N/C(=C\c2ccc(F)cc2)C(=O)NC1=O [Compound 9]
IC50 (influenza A polymerase [3]): > 365 µM
